The values that follow come from ChEMBL document CHEMBL4823254, “Tetrahydroquinoline-Capped Histone Deacetylase 6 Inhibitor SW-101 Ameliorates Pathological Phenotypes in a Charcot-Marie-Tooth Type 2A Mouse Model” (J Med Chem, 2021).

The structures appear in SMILES notation.

Series [1] deals with Protein deacetylase HDAC6, Homo sapiens (UniProt Q9UBN7). In words: biochemical.
The target of series [2] is T1, Histone deacetylase 1 (Homo sapiens, UniProt Q13547). The series can be described thus: biochemical.
Target sequence in this assay (Q13547 whole entry, looked up): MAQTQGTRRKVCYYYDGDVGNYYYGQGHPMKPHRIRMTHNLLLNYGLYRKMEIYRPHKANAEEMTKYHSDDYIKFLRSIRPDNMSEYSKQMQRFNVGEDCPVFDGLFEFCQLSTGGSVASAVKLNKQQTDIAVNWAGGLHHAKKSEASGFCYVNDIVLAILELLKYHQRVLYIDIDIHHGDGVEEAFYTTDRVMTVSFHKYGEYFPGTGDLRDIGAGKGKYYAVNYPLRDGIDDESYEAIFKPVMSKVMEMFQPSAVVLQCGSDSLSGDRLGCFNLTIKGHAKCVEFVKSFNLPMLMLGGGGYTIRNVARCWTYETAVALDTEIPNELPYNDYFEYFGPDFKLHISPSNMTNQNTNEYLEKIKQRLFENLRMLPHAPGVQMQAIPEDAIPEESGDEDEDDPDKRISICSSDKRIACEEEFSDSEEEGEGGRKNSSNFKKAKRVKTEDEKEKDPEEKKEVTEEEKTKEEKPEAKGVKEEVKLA
In series [3] the target is T2, Protein deacetylase HDAC6 (Mus musculus) (UniProt Q9Z2V5).
T2 sequence (whole entry): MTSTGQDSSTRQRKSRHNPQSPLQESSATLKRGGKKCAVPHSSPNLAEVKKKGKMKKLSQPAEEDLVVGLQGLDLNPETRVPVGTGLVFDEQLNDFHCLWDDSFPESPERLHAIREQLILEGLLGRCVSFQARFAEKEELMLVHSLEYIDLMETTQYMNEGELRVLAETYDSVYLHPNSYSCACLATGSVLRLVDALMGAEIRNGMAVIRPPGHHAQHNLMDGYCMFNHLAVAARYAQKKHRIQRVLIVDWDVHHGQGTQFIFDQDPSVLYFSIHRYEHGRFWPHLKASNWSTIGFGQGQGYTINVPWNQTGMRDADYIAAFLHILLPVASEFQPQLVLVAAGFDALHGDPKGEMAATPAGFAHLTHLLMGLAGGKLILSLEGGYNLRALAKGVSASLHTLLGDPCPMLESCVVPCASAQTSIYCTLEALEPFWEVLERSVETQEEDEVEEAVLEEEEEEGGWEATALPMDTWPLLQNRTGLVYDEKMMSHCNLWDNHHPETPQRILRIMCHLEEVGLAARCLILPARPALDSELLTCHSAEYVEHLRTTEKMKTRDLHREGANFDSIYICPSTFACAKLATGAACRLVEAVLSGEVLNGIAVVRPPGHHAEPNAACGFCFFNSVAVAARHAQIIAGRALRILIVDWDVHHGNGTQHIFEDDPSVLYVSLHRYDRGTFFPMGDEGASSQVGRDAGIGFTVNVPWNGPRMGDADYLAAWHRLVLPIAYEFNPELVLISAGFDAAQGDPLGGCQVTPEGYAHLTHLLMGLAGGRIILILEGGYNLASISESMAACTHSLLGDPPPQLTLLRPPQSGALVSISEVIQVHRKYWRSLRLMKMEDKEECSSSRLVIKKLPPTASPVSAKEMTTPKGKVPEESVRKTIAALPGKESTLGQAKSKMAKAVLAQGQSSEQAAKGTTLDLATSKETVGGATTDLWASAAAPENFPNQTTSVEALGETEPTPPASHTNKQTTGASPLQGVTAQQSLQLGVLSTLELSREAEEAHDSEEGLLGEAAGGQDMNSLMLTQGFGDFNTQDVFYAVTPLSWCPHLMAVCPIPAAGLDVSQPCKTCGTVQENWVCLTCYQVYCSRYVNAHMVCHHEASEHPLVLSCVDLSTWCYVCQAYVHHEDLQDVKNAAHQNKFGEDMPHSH
In words: Inhibition of HDAC6 in mouse Neuro2a cells assessed as fold increase in ratio of acetylated alpha-tubulin to alpha tubulin at 1 uM incubated for overnight by Western blot analysis. As to conditions: time 12.0 hrs. Type of series: cell-based.

The target of series [4] is T2, Protein deacetylase HDAC6 (Mus musculus). The series can be described thus: Inhibition of HDAC6 in mouse Neuro2a cells assessed as fold increase in ratio of acetylated alpha-tubulin to alpha tubulin at 0.01 uM incubated for overnight by Western blot analysis. Type of series: cell-based. As to conditions: time 12.0 hrs.
For series [5], the target named is T3, Protein deacetylase HDAC6 (Homo sapiens, UniProt Q9UBN7).
T3 sequence (Q9UBN7 whole entry): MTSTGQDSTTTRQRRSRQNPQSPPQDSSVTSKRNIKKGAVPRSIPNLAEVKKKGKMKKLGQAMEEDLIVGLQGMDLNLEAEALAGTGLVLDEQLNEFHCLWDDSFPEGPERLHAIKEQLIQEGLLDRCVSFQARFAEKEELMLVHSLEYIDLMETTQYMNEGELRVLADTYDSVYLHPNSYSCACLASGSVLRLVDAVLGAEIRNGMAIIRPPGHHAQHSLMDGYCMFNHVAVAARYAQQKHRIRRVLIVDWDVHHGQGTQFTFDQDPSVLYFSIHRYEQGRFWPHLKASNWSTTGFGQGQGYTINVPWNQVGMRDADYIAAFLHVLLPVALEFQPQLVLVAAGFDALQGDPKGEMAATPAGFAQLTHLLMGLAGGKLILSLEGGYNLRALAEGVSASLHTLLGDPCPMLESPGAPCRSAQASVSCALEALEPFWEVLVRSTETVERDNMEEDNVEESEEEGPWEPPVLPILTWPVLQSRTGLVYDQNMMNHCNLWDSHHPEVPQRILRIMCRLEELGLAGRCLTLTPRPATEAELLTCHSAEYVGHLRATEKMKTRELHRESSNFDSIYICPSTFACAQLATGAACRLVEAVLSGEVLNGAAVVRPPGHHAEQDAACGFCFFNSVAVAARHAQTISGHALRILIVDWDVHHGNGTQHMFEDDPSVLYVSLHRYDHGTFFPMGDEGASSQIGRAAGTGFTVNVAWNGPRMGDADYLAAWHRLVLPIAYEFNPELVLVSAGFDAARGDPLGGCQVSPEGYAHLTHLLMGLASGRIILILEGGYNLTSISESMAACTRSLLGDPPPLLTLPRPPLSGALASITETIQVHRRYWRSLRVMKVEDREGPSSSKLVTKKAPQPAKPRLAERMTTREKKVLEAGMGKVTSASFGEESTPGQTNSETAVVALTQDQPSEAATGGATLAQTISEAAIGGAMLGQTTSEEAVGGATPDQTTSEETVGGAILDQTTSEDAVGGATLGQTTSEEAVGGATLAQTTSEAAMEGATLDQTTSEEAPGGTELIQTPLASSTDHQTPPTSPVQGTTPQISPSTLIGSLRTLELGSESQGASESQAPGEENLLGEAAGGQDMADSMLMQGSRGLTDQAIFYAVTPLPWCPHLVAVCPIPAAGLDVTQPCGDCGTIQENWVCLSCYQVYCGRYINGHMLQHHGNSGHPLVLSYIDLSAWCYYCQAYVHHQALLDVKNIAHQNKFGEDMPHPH
Description: Inhibition of recombinant human HDAC6 using Ac-GAK(Ac)-AMC as substrate preincubated for 10 mins followed by substrate addition and measured after 30 mins by fluorescence-based assay

Series [6] deals with T1, Histone deacetylase 1.
Target sequence in this assay (Q13547 whole entry): as the sequence (Q13547 whole entry, looked up) above
Description: Inhibition of recombinant human HDAC1 using Ac-GAK(Ac)-AMC as substrate preincubated for 10 mins followed by substrate addition and measured after 30 mins by fluorescence-based assay
A further series deals with T4, Histone deacetylase 8 (Homo sapiens, UniProt Q9BY41).
T4 sequence (Q9BY41 whole entry): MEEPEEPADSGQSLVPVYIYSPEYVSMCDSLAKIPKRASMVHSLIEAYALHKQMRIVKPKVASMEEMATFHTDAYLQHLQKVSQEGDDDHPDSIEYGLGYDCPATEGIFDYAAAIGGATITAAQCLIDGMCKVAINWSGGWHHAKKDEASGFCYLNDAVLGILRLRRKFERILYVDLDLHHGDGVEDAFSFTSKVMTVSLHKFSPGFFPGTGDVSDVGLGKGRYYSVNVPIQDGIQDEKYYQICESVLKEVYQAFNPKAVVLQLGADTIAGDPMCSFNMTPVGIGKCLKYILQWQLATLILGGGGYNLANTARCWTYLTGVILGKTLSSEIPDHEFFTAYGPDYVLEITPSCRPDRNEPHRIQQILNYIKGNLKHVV

A short description of series [7]: Stability in CD1 mouse pooled liver microsomes assessed as parent compound remaining measured at 60 mins in presence of NADPH by LC-MS/MS analysis. The class given is ADME, Microsome. As to conditions: CD1, mouse, pooled liver microsomes, read-out: Stabilty.
A short description of series [8]: Half life in CD1 mouse pooled liver microsomes assessed as parent compound remaining measured up to 60 mins in presence of NADPH by LC-MS/MS analysis. Type of series: ADME, Microsome. Particulars: CD1, mouse, pooled liver microsomes.
The nature of series [9]: Stability in human pooled liver microsomes assessed as parent compound remaining measured at 60 mins in presence of NADPH by LC-MS/MS analysis. The class given is ADME, Microsome. As to conditions: pooled liver microsomes, read-out: Stabilty. On the technique in general: Liver microsomes are vesicles of endoplasmic reticulum, rich in cytochrome P450 enzymes.
Series [10] in a line: Half life in human pooled liver microsomes assessed as parent compound remaining measured up to 60 mins in presence of NADPH by LC-MS/MS analysis. Particulars: pooled liver microsomes. Type of series: ADME, Microsome.

Description for Histone deacetylase 8: Inhibition of recombinant human HDAC8 using Boc-Lys(TFA)-AMC as substrate preincubated for 10 mins followed by substrate addition and measured after 30 mins by fluorescence-based assay

Usually IC50 stands for the concentration that gives 50% inhibition. A lower IC50 goes with greater potency in that assay. In the case of `CC1(C)CCN(Cc2ccc(C(=O)NO)cc2)c2ccc(F)cc21`, the Ratio IC50 in the series filed under Homo sapiens was determined as 468. The IC50 was determined as 45.1 nM in series [1] and 21.1 µM against Histone deacetylase 1 [2].
As for `CN1CCc2c(c3ccccc3n2Cc2ccc(C(=O)NO)cc2)C1`, the figures for the fold change (FC) in series [3] and in [4] were 1.11 and 0.91, respectively.
For the compound `O=C(NO)c1ccc(CN2C(=O)CCc3cc(C4CC4)ccc32)cc1`, the results for the IC50 (in series [5]; at Histone deacetylase 1 [6]; against Histone deacetylase 8) were 2.7 nM, 117 nM and 1500 nM, respectively.
The term half-life denotes the time needed for the level to fall by half in the phase considered. `N#Cc1ccc2c(c1)CCCCN2Cc1ccc(C(=O)NO)cc1`: in [3], the fold change (FC) came out at 0.98. Further, the remaining at 1 h in series [7] came out at 80.8%; in series [9] it was 84.9%. In addition, the half-life in series [8] is 196 min; in series [10] it was 253 min. Also, the IC50 was 4.6 nM in series [5], 248 nM on Histone deacetylase 1 [6] and 2220 nM against Histone deacetylase 8.
Turning to `O=C(NO)c1ccc(CN2CCCc3cc(Cl)c(Cl)cc32)cc1`, the fold change (FC) in series [3] turned out to be 1.54; in [4] it was 1.38. The Ratio IC50 in the series listed under Homo sapiens worked out at 728. Also, the IC50 in series [1] was 3.6 nM; on Histone deacetylase 1 [2], 2.62 µM.
Turning to `O=C(NO)c1ccc(CN2CCCc3cc(Cl)ccc32)c(F)c1`, the results for the fold change (FC) in [3] and in [4] were 1.38 and 1.21, respectively. In addition, the Ratio IC50 in the series filed under Homo sapiens is 1710. Besides, in series [7], the remaining at 1 h was determined as 17.2%. In series [8], the half-life was found to be 24.8 min. Also, the IC50 in series [1] is 12.4 nM; on Histone deacetylase 1 [2], 21.2 µM.
As for `O=C(NO)c1ccc(CN2CCCCc3cc(Br)ccc32)cc1`, the IC50 in series [5] turned out to be 9 nM; against Histone deacetylase 1 [6] it was 1590 nM; at Histone deacetylase 8, 4360 nM.
With `O=C(NO)c1ccc(CN2CCCCc3cc(Cl)ccc32)cc1`, the fold change (FC) in series [3] was 0.55; in [4], 0.89. Further, the remaining at 1 h in series [7] was 34.7%; in series [9], 83.9%. Moreover, the results for the half-life in [8] and in series [10] were 60.6 min and 2130 min, respectively. In addition, the half-maximal inhibitory concentration (IC50) in series [5] came out at 1 nM; against Histone deacetylase 1 [6], 1900 nM; at Histone deacetylase 8, 8640 nM.
Regarding `CC1(C)CCN(Cc2ccc(C(=O)NO)cc2)c2ccc(Cl)cc21`, the Ratio IC50 in the series filed under Homo sapiens was found to be 519. For the same compound, the remaining at 1 h in series [7] was determined as 6.8%. In series [8], the half-life came to 15.9 min. For the same compound, the IC50 worked out at 37.8 nM in series [1] and 19.6 µM on Histone deacetylase 1 [2].
Consider `CC(c1ccc(C(=O)NO)cc1)N1CCCc2cc(Cl)ccc21` (stereo not given), for which the Ratio IC50 in the series filed under Homo sapiens turned out to be 22. For the same compound, the IC50 in series [1] was 383 nM; at Histone deacetylase 1 [2], 8.43 µM.
Consider `N#Cc1ccc2c(c1)CCCN2Cc1ccc(C(=O)NO)cc1`, for which the figures for the IC50 (in series [5]; on Histone deacetylase 1 [6]; at Histone deacetylase 8) were 1.3 nM, 141 nM and 1490 nM, respectively.
For the compound `O=C(NO)c1ccc(CN2C(=O)CCc3cc(Br)ccc32)cc1`, the values for the IC50 (in series [5]; against Histone deacetylase 1 [6]; on Histone deacetylase 8) were 0.9 nM, 107 nM and 743 nM, respectively.
Take `CC1(C)CCc2cc(F)ccc2N1Cc1ccc(C(=O)NO)cc1`: the Ratio IC50 in the series filed under Homo sapiens is 88. Further, the IC50 in series [1] turned out to be 161 nM; against Histone deacetylase 1 [2] it was 14.1 µM.
The like results for `O=C(NO)c1ccc(C(=O)N2CCCc3cc(Cl)ccc32)cc1` were, in that order, 11, 961 nM and 10.5 µM.
Take `O=C(NO)c1ccc(CN2CCCc3cc(F)c(Cl)cc32)cc1`: the fold change (FC) was found to be 1.53 in [3] and 1.14 in series [4]. Moreover, the Ratio IC50 in the series listed under Homo sapiens was 550. The figures for the IC50 (in series [1]; against Histone deacetylase 1 [2]) were 3.4 nM and 1.87 µM, respectively.
Consider `O=C(NO)c1ccc(CN2CCCc3cc(Cl)c(F)cc32)cc1`, for which the fold change (FC) in series [3] was determined as 1.5; in series [4] it was 1.16. In addition, the Ratio IC50 in the series filed under Homo sapiens was found to be 670. Besides, the remaining at 1 h in series [7] worked out at 19.1%. Moreover, the half-life in series [8] came out at 25.7 min. Besides, the results for the IC50 (in series [1]; at Histone deacetylase 1 [2]) were 4.8 nM and 3.22 µM, respectively.
On to `CCCc1ccc2c(c1)CCC(=O)N2Cc1ccc(C(=O)NO)cc1`, for which the results for the IC50 (in [5]; against Histone deacetylase 1 [6]; at Histone deacetylase 8) were 12 nM, 306 nM and 2680 nM, respectively.
As to `NC(=O)c1ccc2c(c1)CCCCN2Cc1ccc(C(=O)NO)cc1`, the values for the fold change (FC) in [3] and in series [4] were 1.19 and 2.4, respectively. Also, the IC50 in [5] came to 2.4 nM; against Histone deacetylase 1 [6], 150 nM; against Histone deacetylase 8 it was 1060 nM.
As to `CC1(C)CCc2cc(Cl)ccc2N1Cc1ccc(C(=O)NO)cc1`, the Ratio IC50 in the series filed under Homo sapiens was found to be 60. Further, the remaining at 1 h in series [7] was 20.3%. Besides, the half-life in series [8] worked out at 25.4 min. Moreover, the IC50 in series [1] turned out to be 328 nM; on Histone deacetylase 1 [2], 19.6 µM.
As for `O=C(NO)c1ccc(CN2CCCc3cc(-c4cc[nH]n4)ccc32)cc1`, the fold change (FC) in [3] was 2.14; in series [4], 2.65. Also, the IC50 was 0.3 nM in series [5], 184 nM against Histone deacetylase 1 [6] and 792 nM against Histone deacetylase 8.
